In test [1] the test system is F. nucleatum (Fn) biofilm. As to the kind of experiment: Fn biofilm formation induced by Fn AI-2, crystal violet staining. In kind it is cell-based, F. nucleatum (ATCC 25586). To be noted: for OD590 nm: Fn + Fn AI-2 10% (v/v), sugar 2 mM, 48-72 h, smaller OD = more inhibition of biofilm, Fn/AI-2 control 1.5, Fn 0.46. Here is the method:
To test biofilm formation by Fn, a Fn culture broth (2 ml; a negative control group, the number of bacteria: 2×10^7/ml), a mixture of Fn culture broth (2 ml) and F. nucleatum AI-2 (purified from F. nucleatum secretary material of F. nucleatum culture broth using a C18 Sep-Pak reverse-phase column (Waters Co., Milford, Mass.); hereinafter, referred to as ‘Fn AI-2’; 10% (v/v) with respect to the total volume of the mixture with Fn culture broth), or a mixture of Fn culture broth (2 ml) and Fn AI-2 (10% (v/v) with respect to the total volume of the mixture with Fn culture broth) and each of QSI candidates was added to a 24-well plate with a glass slip (round, 12 mm radius), and cultured under anaerobic conditions for 48-72 hours. As the QSI candidates, sugars (D-rib, D-gal, D-Glu, D-Man, or D-ara) were used in an amount of 2 mM, and the furanone compound [(5Z)-4-bromo-5-(bromomethylene)-2(5H)-furanone] was used in an amount of 2 μM.
(§1) Biofilms formed on the cover slips were stained with 10% crystal violet [Tris(4-(dimethylamino)phenyl)methylium chloride] for 10 minutes, washed three times with PBS, and destained with 1 ml of acetone-alcohol (20:80, vol/vol). The optical density at 590 nm of the destaining solution containing crystal violet was measured using a microplate reader (a Wallac Victor3 microtiter, PerkinElmer Life Sciences, Waltham, Mass.). The smaller optical density (OD590) measured at 590 nm represents more inhibition of biofilm formation, that is, higher quorum sensing inhibitory effect of the used QSI candidate.

Test [2] relates to F. nucleatum (Fn) biofilm. As to the kind of experiment: Fn biofilm formation induced by Fn AI-2, fluorescence staining (confocal). In kind it is cell-based, F. nucleatum (ATCC 25586). To be noted: D-rib or D-gal 200 mM, Fn AI-2 10% (v/v). Here is the method:
Further, inhibitory effects of individual QSI candidates on Fn biofilm formation induced by Fn AI-2 were examined by fluorescence staining. 2 ml of Fn culture broth (the number of bacteria: 2×10^7/ml) was used, and Fn AI-2 was used in a volume of 10% (v/v) with respect to the total volume of a mixture with Fn culture broth. As the QSI candidates, 200 mM of D-rib or D-gal was used, and 20 μM of the furanone compound was used. Biofilms formed on the cover slip were stained with fluorescent materials using the live/dead-BacLight viability kit (Invitrogen, Grand Island, N.Y., USA) and observed using a confocal microscope (Carl Zeiss, LSM 700). […] Fluorescence intensities of the obtained individual fluorescence images were quantified using ZEN 2010 program of a confocal microscope, and shown in FIG. 3.

Test [3] concerns P. gingivalis (Pg) biofilm. As to the kind of experiment: Pg biofilm formation induced by Fn AI-2, crystal violet staining. It is filed as cell-based, P. gingivalis (ATCC 33277). The method, then: To test biofilm formation by Pg, a test was performed in the same manner as in Example 3. That is, a Pg culture broth (2 ml; negative control group, the number of bacteria: 4×10^8/ml), a mixture of Pg culture broth (2 ml) and Fn AI-2 (10% (v/v) with respect to the total volume of the mixture with Pg culture broth), or a mixture of Pg culture broth (2 ml) and Fn AI-2 (10% (v/v) with respect to the total volume of the mixture with Fn culture broth) and D-gal (2 mM) was added to a 24-well plate with a glass slip (round, 12 mm radius), and cultured under anaerobic conditions for 48˜72 hours. For comparison, 2 μM of the furanone compound [(5Z)-4-bromo-5-(bromomethylene)-2(5H)-furanone] was used instead of D-gal (2 mM) to perform the same test.
as §1

For test [4], the system named is P. gingivalis (Pg) biofilm. Nature of the test: Pg biofilm formation induced by Fn secretory material, transwell, crystal violet. In kind it is cell-based. To be noted: for OD590 nm: Fn upper / Pg lower chamber, sugar 2 mM, 48-72 h, Fn/Pg control 0.57, Pg alone 0.30. The method, then:
In order to examine efficacies of quorum sensing inhibitor (QSI) candidates on biofilm formation of periodontopathogenic bacteria which is induced by a secretory material of F. nucleatum (Fn), a test was performed using a transwell system. AI-2 naturally secreted by Fn is contained in the secretory material of Fn. Therefore, in the test using the transwell system, Fn AI-2 was not directly added to bacteria, but Fn was put in an upper chamber and Pg or Tf was put in a lower chamber. Biofilms cultured and formed in the presence or absence of QSI candidates were stained with crystal violet, followed by analysis. These conditions are to evaluate whether Pg or Tf biofilm formation is influenced by not a purified AI-2 but an AI-2-containing secretory material naturally secreted by Fn, and whether QSI candidates such as D-gal is able to inhibit the biofilm formation if the biofilm is then formed.
More specifically, the transwell system (24-well) has an upper chamber and a lower chamber which are separated from each other by a membrane of 0.4 μm. 500 μl of F. nucelatum (Fn) culture broth (the number of bacteria: 2×10^7 CFU/ml) was cultured in the upper chamber. A glass slip was placed in the lower chamber, and then the same number of P. gingivalis(Pg) or T. forsythia(Tf) was inoculated in 1 ml of medium and cultured for 48-72 hours. The same QSI candidates were added to the upper and lower chambers. As the QSI candidates, 2 mM of sugar (D-rib or D-gal) was used and 2 μM of the furanone compound [(5Z)-4-bromo-5-(bromomethylene)-2(5H)-furanone] was used. In order to examine whether biofilm formation of the bacteria in the lower chamber is influenced by Fn secretory material and QSI candidates, the biofilms formed on the glass slip were stained with crystal violet, and then quantified (see Examples 3 to 5).

The subject of the next test is S. mutans (Sm) biofilm. Nature of the test: S. mutans biofilm formation, crystal violet staining. It is filed as cell-based, Streptococcus mutans (ATCC 25175). To be noted: D-gal 2 mM. Here is the method: 2 mL (2×10^7/ml) of the culture broth of a representative cariogenic bacterium S. mutans (Sm) and 2 mL (2×10^7/ml) of the culture broth of one of normal oral flora, S. oxalis (SO) were added to a saliva-coated glass slip (round, 12 mm radius), respectively and cultured with 0 mM or 2 mM of D-galactose to form biofilms. The formed biofilms were stained with crystal violet in the same manner as in Examples 3-6 to test biofilm formation according to the presence of D-galactose. Further, the biofilms were stained with fluorescent materials using the live/dead-BacLight viability kit (Invitrogen, Grand Island, N.Y., USA), followed by analysis. For comparison, 2 μM of the furanone compound was used instead of D-galactose to perform the same test.

The results in this text go back to patent publication US20190224222A1, “METHOD OF INHIBITING QUORUM SENSING USING D-GALACTOSE” (Seoul National University R&DB Foundation, priority 2014, published 2019).

On to `O=C[C@H](O)[C@@H](O)[C@@H](O)[C@H](O)CO` [D-gal, D-galactose], for which the OD590 nm in test [1] came to 0.57; in test [3] (Pg + Fn AI-2 10% (v/v), D-gal 2 mM, 48-72 h, Pg/AI-2 control 2.00, Pg 0.66), 1.24; in test [4], 0.45; with S. mutans (Sm) biofilm (Sm on saliva-coated glass slip, Sm control 0.48), 0.37. The “QSI inhibitory effect (inhibitory effect on Fn biofilm formation), in words” value in test [1] (crystal violet, sugars 2 mM, compared to negative control Fn/AI-2) is “excellent QSI inhibitory effect”. Besides, in test [2], the “inhibitory effect on Fn biofilm formation, in words” value was “remarkably excellent inhibitory effect”. The “inhibitory effect on Pg biofilm formation, in words” value in test [3] (crystal violet, D-gal 2 mM vs furanone 2 μM) is “equivalent to that of the furanone compound”. The “inhibitory effect on Pg biofilm formation induced by Fn secretory material, in words” value in test [4] (D-gal 2 mM compared to D-rib 2 mM) is “remarkably excellent inhibitory effect, compared to D-rib”. Moreover, the “inhibitory effect on Sm biofilm formation, in words” value in the test on S. mutans (Sm) biofilm (crystal violet, furanone compound 2 μM) was “significant inhibitory effect”.
On to `O=C[C@H](O)[C@H](O)[C@H](O)CO` [D-rib, D-ribose, reference compound], for which the OD590 nm in test [1] was determined as 0.77; in test [4] it was 0.58. For the same compound, the “inhibitory effect on Fn biofilm formation, in words” value in test [2] was “inhibited”.
